BindingDB's records for doi:10.1021/jm201708h (Progen Pharmaceuticals, 2012)

Target: T1, Heparanase (Homo sapiens, UniProt Q9Y251)
T1 sequence (Q9Y251 whole entry): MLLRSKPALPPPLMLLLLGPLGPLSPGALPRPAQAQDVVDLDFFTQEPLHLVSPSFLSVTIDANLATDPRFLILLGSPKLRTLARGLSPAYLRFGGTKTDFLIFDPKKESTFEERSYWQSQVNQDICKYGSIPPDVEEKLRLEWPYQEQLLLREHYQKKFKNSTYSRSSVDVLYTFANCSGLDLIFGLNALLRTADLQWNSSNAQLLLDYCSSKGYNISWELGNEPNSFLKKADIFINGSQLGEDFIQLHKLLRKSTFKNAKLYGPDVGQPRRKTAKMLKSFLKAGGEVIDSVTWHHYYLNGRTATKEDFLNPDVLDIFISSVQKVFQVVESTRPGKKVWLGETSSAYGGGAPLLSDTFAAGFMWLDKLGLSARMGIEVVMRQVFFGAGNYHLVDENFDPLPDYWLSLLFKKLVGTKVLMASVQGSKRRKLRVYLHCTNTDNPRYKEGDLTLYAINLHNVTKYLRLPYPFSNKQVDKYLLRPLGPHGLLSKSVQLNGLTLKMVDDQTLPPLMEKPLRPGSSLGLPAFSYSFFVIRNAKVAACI
Experiment: Inhibition of human recombinant heparanase after 2 to 24 hrs by WST1 dye based fondaparinux assay

O=P(O)(O)OC[C@H]1O[C@H](O[C@@H]2[C@H](OS(=O)(=O)O)[C@@H](O[C@@H]3[C@H](OS(=O)(=O)O)[C@@H](O[C@@H]4[C@H](OS(=O)(=O)O)[C@@H](O[C@@H]5[C@@H](OS(=O)(=O)O)O[C@H](COS(=O)(=O)O)[C@@H](OS(=O)(=O)O)[C@@H]5OS(=O)(=O)O)O[C@H](COS(=O)(=O)O)[C@H]4OS(=O)(=O)O)O[C@H](COS(=O)(=O)O)[C@H]3OS(=O)(=O)O)O[C@H](COS(=O)(=O)O)[C@H]2OS(=O)(=O)O)[C@@H](OS(=O)(=O)O)[C@@H](OS(=O)(=O)O)[C@@H]1OS(=O)(=O)O [PI-88]
Ki: 7.9 nM
